In article PMC9090415, “Discovery of small molecule inhibitors of Plasmodium falciparum apicoplast DNA polymerase” (Journal of Enzyme Inhibition and Medicinal Chemistry, 2022):

Target: P. falciparum apicoplast DNA polymerase (Pf-apPOL) (Plasmodium falciparum, UniProt Q8ILY1)
Test: Fluorescence-based high-throughput DNA polymerase assay (molecular beacon), primary screen and dose-response
Assay type: biochemical
Conditions: for DNA Pol: unit not given, 90 min, 10 µM; for % inhibition Apo pol 10' 2.5 / % inhibition Apo pol 10' 5 / % inhibition Apo pol 10' 10 / % inhibition Apo pol 10' 20 / % inhibition Apo pol 10' 40 / % inhibition Apo pol 10' 80: read at 10'; for % inhibition Apol 90' 2.5 / % inhibition Apol 90' 5 / % inhibition Apol 90' 10 / % inhibition Apol 90' 20 / % inhibition Apol 90' 40 / % inhibition Apol 90' 80 / % inhibition ApPOL 90' 2.5 / % inhibition ApPOL 90' 5 / % inhibition ApPOL 90' 10 / % inhibition ApPOL 90' 20 / % inhibition ApPOL 90' 40 / % inhibition ApPOL 90' 80: read at 90'; for % inhibition apPOL 180' 2.5 / % inhibition apPOL 180' 5 / % inhibition apPOL 180' 10 / % inhibition apPOL 180' 20 / % inhibition apPOL 180' 40 / % inhibition apPOL 180' 80: read at 180'; for % inhibition Apo pol 5' 2.5 / % inhibition Apo pol 5' 5 / % inhibition Apo pol 5' 10 / % inhibition Apo pol 5' 20 / % inhibition Apo pol 5' 40 / % inhibition Apo pol 5' 80: read at 5'; for % inhibition Apol 40' 2.5 / % inhibition Apol 40' 5 / % inhibition Apol 40' 10 / % inhibition Apol 40' 20 / % inhibition Apol 40' 40 / % inhibition Apol 40' 80: read at 40'
Summary of the method: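 Single-point screening used 10 µM compound with 20 nM polymerase, 20 nM hairpin substrate and 6 µM dNTPs for 90 min at 25 °C. Confirmatory titrations (2.5–80 µM) followed fluorescence at three times, and IC50 was derived from a fit including a cooperativity term n.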

[1] = 186 hits, DNA Pol (screen value)
[2] = first dose-response, concentration 2.5
[3] = first dose-response, concentration 10
[4] = first dose-response, concentration 20

P. falciparum apicoplast DNA polymerase (Pf-apPOL), sequence (Q8ILY1 entry or part of it): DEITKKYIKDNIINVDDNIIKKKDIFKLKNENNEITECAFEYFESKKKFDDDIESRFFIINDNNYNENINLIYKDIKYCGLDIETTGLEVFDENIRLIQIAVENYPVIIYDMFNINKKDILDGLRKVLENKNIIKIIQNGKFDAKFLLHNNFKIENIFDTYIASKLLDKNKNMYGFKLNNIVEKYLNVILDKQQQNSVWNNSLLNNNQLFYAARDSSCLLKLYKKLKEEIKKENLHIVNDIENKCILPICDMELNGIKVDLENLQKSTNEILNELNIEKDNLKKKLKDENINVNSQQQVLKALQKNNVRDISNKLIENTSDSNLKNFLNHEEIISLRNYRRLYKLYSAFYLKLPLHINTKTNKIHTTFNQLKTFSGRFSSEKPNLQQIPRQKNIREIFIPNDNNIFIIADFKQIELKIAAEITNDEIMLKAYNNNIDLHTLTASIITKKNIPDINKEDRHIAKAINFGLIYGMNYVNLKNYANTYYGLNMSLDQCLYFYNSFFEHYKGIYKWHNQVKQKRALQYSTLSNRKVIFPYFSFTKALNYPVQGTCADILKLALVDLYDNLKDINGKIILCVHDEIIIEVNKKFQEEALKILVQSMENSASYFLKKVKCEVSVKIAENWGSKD

COc1ccc(/C=C/c2cc(C(=O)O)c3ccccc3n2)cc1 [Molecule 5, COc1ccc(cc1)/C=C/c1nc2ccccc2c(c1)C(=O)O]
DNA Pol [1]: 61
DNA Pol ('DNA Pol' (screen value)): 61
% inhibition Apo pol 10' 2.5 (DRC-1, concentration 2.5): 43.4862%
% inhibition Apo pol 10' 5 (DRC-1, concentration 5): 53.3879%
% inhibition Apo pol 10' 10 (DRC-1, concentration 10): 61.7052%
% inhibition Apo pol 10' 20 (DRC-1, concentration 20): 65.8277%
% inhibition Apo pol 10' 40 (DRC-1, concentration 40): 71.2771%
% inhibition Apo pol 10' 80 (DRC-1, concentration 80): 72.4327%
% inhibition Apol 90' 2.5 (DRC-1, concentration 2.5): 35.7188%
% inhibition Apol 90' 5 (DRC-1, concentration 5): 44.8099%
% inhibition Apol 90' 10 (DRC-1, concentration 10): 55.1819%
% inhibition Apol 90' 20 (DRC-1, concentration 20): 60.94%
% inhibition Apol 90' 40 (DRC-1, concentration 40): 68.5014%
% inhibition Apol 90' 80 (DRC-1, concentration 80): 67.8921%
% inhibition apPOL 180' 2.5 (DRC-1, concentration 2.5): 28.4361%
% inhibition apPOL 180' 5 (DRC-1, concentration 5): 35.945%
% inhibition apPOL 180' 10 (DRC-1, concentration 10): 46.8104%
% inhibition apPOL 180' 20 (DRC-1, concentration 20): 54.1695%
% inhibition apPOL 180' 40 (DRC-1, concentration 40): 63.6204%
% inhibition apPOL 180' 80 (DRC-1, concentration 80): 63.471%
% inhibition Apo pol 5' (DRC-2, concentration 20): 38%
% inhibition Apol 40' (DRC-2, concentration 2.5): 46%
% inhibition Apol 40' (DRC-2, concentration 5): 36%
% inhibition Apol 40' (DRC-2, concentration 20): 46%
% inhibition Apol 40' (DRC-2, concentration 80): 38%
% inhibition ApPOL 90' (DRC-2, concentration 2.5): 45%
% inhibition ApPOL 90' (DRC-2, concentration 5): 36%
% inhibition ApPOL 90' (DRC-2, concentration 20): 46%
% inhibition apPOL 180' (DRC-2, concentration 20): 38%
% inhibition apPOL 180' (DRC-2, concentration 80): 45%
% inhibition Apo pol 5' 2.5 (DRC-2, concentration 2.5): 37%
% inhibition Apo pol 5' 5 (DRC-2, concentration 5): 31%
% inhibition Apo pol 5' 10 (DRC-2, concentration 10): 8.56%
% inhibition Apo pol 5' 20 (DRC-2, concentration 20): 38%
% inhibition Apo pol 5' 40 (DRC-2, concentration 40): 43%
% inhibition Apo pol 5' 80 (DRC-2, concentration 80): 14%
% inhibition Apol 40' 2.5 (DRC-2, concentration 2.5): 46%
% inhibition Apol 40' 5 (DRC-2, concentration 5): 36%
% inhibition Apol 40' 10 (DRC-2, concentration 10): -66%
% inhibition Apol 40' 20 (DRC-2, concentration 20): 46%
% inhibition Apol 40' 40 (DRC-2, concentration 40): 55%
% inhibition Apol 40' 80 (DRC-2, concentration 80): 38%
% inhibition ApPOL 90' 2.5 (DRC-2, concentration 2.5): 45%
% inhibition ApPOL 90' 5 (DRC-2, concentration 5): 36%
% inhibition ApPOL 90' 10 (DRC-2, concentration 10): -90%
% inhibition ApPOL 90' 20 (DRC-2, concentration 20): 46%
% inhibition ApPOL 90' 40 (DRC-2, concentration 40): 56%
% inhibition ApPOL 90' 80 (DRC-2, concentration 80): 44%
% inhibition apPOL 180' 2.5 (DRC-2, concentration 2.5): 34%
% inhibition apPOL 180' 5 (DRC-2, concentration 5): 25%
% inhibition apPOL 180' 10 (DRC-2, concentration 10): -139%
% inhibition apPOL 180' 20 (DRC-2, concentration 20): 38%
% inhibition apPOL 180' 40 (DRC-2, concentration 40): 50%
% inhibition apPOL 180' 80 (DRC-2, concentration 80): 45%

COc1ccc(C2CC(c3ccc(Cl)cc3Cl)Nc3nc(N)nn32)cc1OC (stereo not shown) [Molecule 43, COc1cc(ccc1OC)C1CC(Nc2n1nc(n2)N)c1ccc(cc1Cl)Cl]
DNA Pol [1]: 50
DNA Pol ('DNA Pol' (screen value)): 50
% inhibition Apo pol 10' 2.5 (DRC-1, concentration 2.5): 35%
% inhibition Apo pol 10' 5 (DRC-1, concentration 5): 39%
% inhibition Apo pol 10' 10 (DRC-1, concentration 10): 50%
% inhibition Apo pol 10' 20 (DRC-1, concentration 20): 56%
% inhibition Apo pol 10' 40 (DRC-1, concentration 40): 63%
% inhibition Apo pol 10' 80 (DRC-1, concentration 80): 71%
% inhibition Apol 90' 2.5 (DRC-1, concentration 2.5): 28%
% inhibition Apol 90' 5 (DRC-1, concentration 5): 32%
% inhibition Apol 90' 10 (DRC-1, concentration 10): 43%
% inhibition Apol 90' 20 (DRC-1, concentration 20): 51%
% inhibition Apol 90' 40 (DRC-1, concentration 40): 58%
% inhibition Apol 90' 80 (DRC-1, concentration 80): 67%
% inhibition apPOL 180' 2.5 (DRC-1, concentration 2.5): 22%
% inhibition apPOL 180' 5 (DRC-1, concentration 5): 25%
% inhibition apPOL 180' 10 (DRC-1, concentration 10): 35%
% inhibition apPOL 180' 20 (DRC-1, concentration 20): 43%
% inhibition apPOL 180' 40 (DRC-1, concentration 40): 52%
% inhibition apPOL 180' 80 (DRC-1, concentration 80): 62%
% inhibition Apo pol 5' (DRC-2, concentration 5): 22%
% inhibition Apo pol 5' (DRC-2, concentration 10): 28%
% inhibition Apo pol 5' (DRC-2, concentration 20): 30%
% inhibition Apo pol 5' (DRC-2, concentration 40): 39%
% inhibition Apol 40' (DRC-2, concentration 2.5): 26%
% inhibition Apol 40' (DRC-2, concentration 5): 29%
% inhibition Apol 40' (DRC-2, concentration 20): 42%
% inhibition Apol 40' (DRC-2, concentration 80): 51%
% inhibition ApPOL 90' (DRC-2, concentration 2.5): 26%
% inhibition ApPOL 90' (DRC-2, concentration 5): 29%
% inhibition ApPOL 90' (DRC-2, concentration 20): 42%
% inhibition ApPOL 90' (DRC-2, concentration 40): 50%
% inhibition ApPOL 90' (DRC-2, concentration 80): 52%
% inhibition apPOL 180' (DRC-2, concentration 10): 30%
% inhibition apPOL 180' (DRC-2, concentration 20): 35%
% inhibition apPOL 180' (DRC-2, concentration 40): 43%
% inhibition Apo pol 5' 2.5 (DRC-2, concentration 2.5): 23%
% inhibition Apo pol 5' 5 (DRC-2, concentration 5): 22%
% inhibition Apo pol 5' 10 (DRC-2, concentration 10): 28%
% inhibition Apo pol 5' 20 (DRC-2, concentration 20): 30%
% inhibition Apo pol 5' 40 (DRC-2, concentration 40): 39%
% inhibition Apo pol 5' 80 (DRC-2, concentration 80): 38%
% inhibition Apol 40' 2.5 (DRC-2, concentration 2.5): 26%
% inhibition Apol 40' 5 (DRC-2, concentration 5): 29%
% inhibition Apol 40' 10 (DRC-2, concentration 10): 36%
% inhibition Apol 40' 20 (DRC-2, concentration 20): 42%
% inhibition Apol 40' 40 (DRC-2, concentration 40): 49%
% inhibition Apol 40' 80 (DRC-2, concentration 80): 51%
% inhibition ApPOL 90' 2.5 (DRC-2, concentration 2.5): 26%
% inhibition ApPOL 90' 5 (DRC-2, concentration 5): 29%
% inhibition ApPOL 90' 10 (DRC-2, concentration 10): 37%
% inhibition ApPOL 90' 20 (DRC-2, concentration 20): 42%
% inhibition ApPOL 90' 40 (DRC-2, concentration 40): 50%
% inhibition ApPOL 90' 80 (DRC-2, concentration 80): 52%
% inhibition apPOL 180' 2.5 (DRC-2, concentration 2.5): 18%
% inhibition apPOL 180' 5 (DRC-2, concentration 5): 21%
% inhibition apPOL 180' 10 (DRC-2, concentration 10): 30%
% inhibition apPOL 180' 20 (DRC-2, concentration 20): 35%
% inhibition apPOL 180' 40 (DRC-2, concentration 40): 43%
% inhibition apPOL 180' 80 (DRC-2, concentration 80): 46%
% inhibition Apo pol 10' [2]: 35%
% inhibition Apo pol 10' (first dose-response, concentration 5): 39%
% inhibition Apo pol 10' [3]: 50%
% inhibition Apol 90' [2]: 28%
% inhibition Apol 90' [3]: 43%
% inhibition Apol 90' [4]: 51%
% inhibition apPOL 180' [2]: 22%
% inhibition apPOL 180' [3]: 35%
% inhibition apPOL 180' [4]: 43%
% inhibition apPOL 180' (first dose-response, concentration 40): 52%
